Source: US12173088B2, “Anti-microbial peptides” (priority 2018, dated 2024)
Values after ≈ are worked out from the molar mass of the structure shown. Like-named read-outs stand apart in the source and are kept apart here. Blank lines part the entries; values can stand above or below the molecule they belong to. Peptide text beside a SMILES is read from it.

Legend:
K. pneumoniae E406-17 = experiment: microbe, parasite or virus in culture; format: cell-based, Klebsiella pneumoniae; conditions: E406-17
Experimental: (§1) The antibacterial activity of peptides was evaluated using a standard broth microdilution protocol with minor modifications as described (Mishra, et al. (2012) J. Am. Chem. Soc., 134:12426-12429). In brief, logarithmic phase bacterial cultures (i.e., optical density at 600 nm≈0.5) were diluted to OD600 0.001 and partitioned into a 96-well polystyrene microplate at 90 μL per well. After treatment with 10 μL of peptide solutions two fold diluted to various concentrations, microplates were incubated at 37° C. overnight and read on a ChroMate® 4300 Microplate Reader at 630 nm (GMI, Ramsey, MN). […] To study the influence of medium conditions on the antimicrobial activity of peptides against S. aureus USA300, up to 200 mM sodium chloride (NaCl), 2 mM of calcium chloride, 5-10% of human serum, mouse plasma, fluid, or supernatants of tissue homogenates were included into the assays.
(§2) The bacterial strains used include the Gram-positive bacteria methicillin-resistant Staphylococcus aureus USA300, Enterococcus faecium V286-17 (VRE), S. aureus M838-17 (MRSA) and Gram-negative bacteria E. coli E423-17, E416-7 (ampC), P. aeruginosa E411-17, PA01, K. pneumoniae E406-17, ATCC13883, and A. baumannii B26-16. Bacteria were cultivated in tryptic soy broth (TSB) from BD Bioscience.
(§3) The antibacterial activity of peptides was evaluated using a standard broth microdilution protocol with minor modifications (Mishra, et al. (2017) Acta Biomater., 49:316-328). In brief, logarithmic phase bacterial cultures (i.e., optical density at 600 nm≈0.5) were diluted to 0.001 OD and aliquoted 90 μL per well into a 96-well polystyrene microplate. Added 10 μL peptides per well with various concentrations, plates were incubated at 37° C., overnight. Post incubation the plates are read at 630 nm using a ChroMate® Microplate Reader (GMI). […] To study the influence of medium conditions on the antimicrobial activity of peptides against S. aureus USA300 at different pHs (6.8, 7.2, and 8.0), 150 mM sodium chloride (NaCl), 5-10% of human serum, mouse plasma, and peritoneal fluid were included into the assays.

S. aureus M838-17 (MRSA) = experiment: microbe, parasite or virus in culture; format: cell-based, Staphylococcus aureus; conditions: M838-17
In short: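 Peptides were serially diluted two-fold against bacteria grown in tryptic soy broth to log phase (OD600 ≈0.5), then seeded at OD600 0.001. Plates were held overnight at 37° C and read at 630 nm. USA300 was also tested at pH 6.8, 7.2 and 8.0, with 150 mM NaCl or 5-10% serum, plasma or peritoneal fluid.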

P. aeruginosa E411-17 = experiment: microbe, parasite or virus in culture; format: cell-based, Pseudomonas aeruginosa; conditions: E411-17
Description: The bacterial strains used include the Gram-positive strains Staphylococcus aureus USA300 LAC, S. epidermidis 1457, and Bacillus subtilis 168, as well as the Gram-negative isolates Escherichia coli K12 and Acinetobacter baumannii B2367-12. Additional, drug resistance strains include Gram-positive Enterococcus faecium V286-17 (VRE) and S. aureus M838-17 (MRSA) and Gram-negative E. coli E423-17, E. coli E416-17 (ampC), and P. aeruginosa E411-17. Bacteria were cultivated in tryptic soy broth (TSB) (BD Bioscience, MD).
as §1, §2, §3

Hemolytic assay = format: cell-based, human; conditions: human, human red blood cells, 2% (v/v)
In short: (§4)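 HL50 marks the peptide level lysing half of a 2% (v/v) suspension of washed human erythrocytes after 1 h at 37 °C. Released hemoglobin measured at 545 nm, scaled between PBS (0%) and Triton X-100 (2% or 1%; 100%). Selectivity index computed as HL50 over MIC.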

K. pneumoniae ATCC 13883 = format: cell-based, Klebsiella pneumoniae; conditions: quantified by UV
In short: (§5)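 Broth microdilution in tryptic soy broth: log-phase cultures (OD600 ≈0.5) diluted to OD600 0.001, given two-fold peptide dilutions, incubated overnight at 37° C. Growth read at 630 nm.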

S. aureus USA300 = experiment: microbe, parasite or virus in culture; format: cell-based, Staphylococcus aureus; conditions: for MIC S. aureus USA 300: quantified by UV
In short: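 Broth microdilution: log-phase cultures in tryptic soy broth diluted to OD600 0.001, exposed to two-fold diluted peptides at 37° C overnight, growth read at 630 nm. Medium effects on S. aureus USA300 tested with up to 200 mM NaCl, 2 mM CaCl2, 5-10% human serum, mouse plasma, fluids or tissue homogenate supernatants.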

E. coli ATCC 25922 = format: cell-based, Escherichia coli
In short: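 Peptides, serially diluted two-fold, were incubated overnight at 37 °C with E. coli ATCC 25922 from log-phase cultures adjusted to OD600 0.001. Turbidity at 630 nm served as the read-out in this broth microdilution format.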

P. aeruginosa PAO1 = format: cell-based, Pseudomonas aeruginosa
In short: as §5

[1] = tested on: human red blood cells (hRBCs); experiment: Hemolytic assay; format: cell-based
In short: as §4

[2] = Table 4, quantitated based on weight

MIC K. pneumonia 406-17 (K. pneumoniae E406-17): >50 µM
MIC S. aureus M838-17 (S. aureus M838-17 (MRSA)): 6.25 µM (≈ 8.21 µg/mL)
MIC P. aeruginosa 411-17 (P. aeruginosa E411-17): 12.5 µM (≈ 16.4 µg/mL)
SMILES: CC(C)C[C@H](NC(=O)[C@H](Cc1c[nH]c2ccccc12)NC(=O)[C@H](Cc1c[nH]c2ccccc12)NC(=O)[C@H](Cc1c[nH]c2ccccc12)NC(=O)[C@H](CCCNC(=N)N)NC(=O)[C@H](CCCNC(=N)N)NC(=O)[C@H](CCCNC(=N)N)NC(=O)[C@@H](N)CCCNC(=N)N)C(N)=O [WW309, RRRRWWWL] (H-RRRRWWWL-NH2; N-terminus and C-terminus assumed)
HC50 at 1 h (Hemolytic assay): > 200 µM

SMILES: CC(C)C[C@H](NC(=O)[C@H](CC(C)C)NC(=O)[C@H](CCCCN)NC(=O)CNC(=O)[C@H](CC(C)C)NC(=O)[C@H](CC(C)C)NC(=O)[C@H](CO)NC(=O)[C@H](CC(C)C)NC(=O)[C@H](CC(C)C)NC(=O)[C@H](CO)NC(=O)[C@H](CC(C)C)NC(=O)[C@H](CC(C)C)NC(=O)CN)C(N)=O [DFTamP1, GLLSLLSLLGKLL] (H-GLLSLLSLLGKLL-NH2; N-terminus assumed)
MIC K. pneumoniae (K. pneumoniae ATCC 13883; Table 2): >25 µM
MIC K. pneumonia ATCC 13883 (K. pneumoniae ATCC 13883; Table 3): >25 µM
MIC (S. aureus USA300; 1 mM Ca2+): 0.78 µM (≈ 1.04 µg/mL)
MIC (S. aureus USA300; 2 mM Ca2+): 0.78 to 1.56 µM
MIC (S. aureus USA300; 50 mM NaCl): 0.78 µM (≈ 1.04 µg/mL)
MIC (S. aureus USA300; 100 mM NaCl): 0.78 µM (≈ 1.04 µg/mL)
MIC (S. aureus USA300; 200 mM NaCl): 0.78 µM (≈ 1.04 µg/mL)
MIC (S. aureus USA300; Human serum (5%), Table 5): 12.5 µM (≈ 16.7 µg/mL)
MIC (S. aureus USA300; Murine plasma (5%), Table 5): 6.2^ 2 μM
MIC (S. aureus USA300; NaCl (150 mM), Table 5): 3.1 to 6.2 µM
MIC (S. aureus USA300; No salts added, Table 6, by UV): 0.78 µM
MIC S. aureus USA 300 (S. aureus USA300; Table 2, peptides amidated): 0.78 µM (≈ 1.04 µg/mL)
MIC S. aureus USA 300 (S. aureus USA300; Table 3): 0.78 µM (≈ 1.04 µg/mL)
MIC SA (S. aureus USA300) (S. aureus USA300; [2]): 3.1 µM (≈ 4.15 µg/mL)
MIC (S. aureus USA300; pH 6.8, Table 5, by weight): 6.2 µM (≈ 8.3 µg/mL)
MIC (S. aureus USA300; pH 7.4, Table 5): 3.1 µM (≈ 4.15 µg/mL)
MIC (S. aureus USA300; pH 8.0, Table 5): 3.1 µM (≈ 4.15 µg/mL)
MIC E. coli ATCC 25922 (E. coli ATCC 25922; Table 2, quantified by UV): >25 µM
MIC EC (E. coli ATCC 25922) (E. coli ATCC 25922; [2]): >25 µM
MIC P. aeruginosa PAO1 (P. aeruginosa PAO1; Table 2, quantified by UV): >25 µM
MIC PA (P. aeruginosa PAO1) (P. aeruginosa PAO1; [2]): >25 µM
HC50 at 1 h (Hemolytic assay; Table 4, quantitated based on weight, read-out: HL50, peptide concentration for 50% hemolysis): 10 µM
HL50 ([1]; Table 2, lysis of 50% hRBCs (2% v/v)): <3.1 µM
HL50 ([1]; Table 3, hRBCs 2% v/v): <3.1 µM

MIC K. pneumonia 406-17 (K. pneumoniae E406-17): 6.25 µM (≈ 8.4 µg/mL)
MIC S. aureus M838-17 (S. aureus M838-17 (MRSA)): 3.1 µM (≈ 4.17 µg/mL)
MIC P. aeruginosa 411-17 (P. aeruginosa E411-17): 6.25 µM (≈ 8.4 µg/mL)
SMILES: CC(C)C[C@H](NC(=O)[C@H](Cc1c[nH]c2ccccc12)NC(=O)[C@H](Cc1c[nH]c2ccccc12)NC(=O)[C@H](Cc1c[nH]c2ccccc12)NC(=O)[C@H](Cc1c[nH]c2ccccc12)NC(=O)[C@H](CCCNC(=N)N)NC(=O)[C@H](CCCNC(=N)N)NC(=O)[C@@H](N)CCCNC(=N)N)C(N)=O [WW306, RRRWWWWL] (H-RRRWWWWL-NH2; N-terminus and C-terminus assumed)
HC50 at 1 h (Hemolytic assay): 60 µM
